The values that follow come from US20150352108A1, “AMINO-PYRIMIDINE COMPOUNDS AS INHIBITORS OF TBK1 AND/OR IKK EPSILON” (Alzheimer's Institute of America, priority 2009, published 2015).

For experiment [1], the system named is IKKε-mediated phosphorylation of IRF3. The experiment in a line: In-situ phosphorylation of IRF3 (pIRF3 Ser396 ELISA) in HEK293T cells cotransfected with IRF3 and IKKε. As to conditions: Homo sapiens, HEK-293T. The format is cell-based. How it is done:
HEK293T cells were cotransfected in a 10-cm dish with IRF3 and IKKε expression plasmids using Lipofectamine 2000 (Invitrogen, Carlsbad, Calif.). The following day, cells were replated at 20,000 per well in 96-well plates and treated with test compounds (compounds according to Formula I) for 20 hours. Cell lysates were prepared and analyzed using an ELISA for phospho-Ser396 (anti-IRF3 capture antibody, Santa Cruz Biotechnology, Inc., Santa Cruz, Calif.; anti-p-Ser396 IRF3 detection antibody, Cell Signaling, Danvers, Mass.). pIRF3 levels in compound treated cells were normalized to DMSO treated cells (no compound). Cell viability was assayed in a parallel set of plates to monitor cytotoxic effects of the test compounds (CellTiter-Glo, Promega, Inc., Madison, Wis.). TBK1 activity was tested by Western blotting using a phospho-specific IRF7 antibody. Similar to above, HEK293T cells were transfected with IRF7 and TBK1 expression plasmids. Cells were seeded in 12-well plates at 150,000 per well and treated overnight with test compounds. Protein lysates were prepared and processed for Western blotting followed by detection using a phosphor-Ser477/Ser479 IRF7 antibody (BD Biosciences, San Jose, Calif.)

In the next experiment the target is T1, IKKε (Homo sapiens, UniProt Q14164).
T1 construct: His-tag; made in house; host or cells: Sf9 insect cells
T1 sequence (Q14164 1-716): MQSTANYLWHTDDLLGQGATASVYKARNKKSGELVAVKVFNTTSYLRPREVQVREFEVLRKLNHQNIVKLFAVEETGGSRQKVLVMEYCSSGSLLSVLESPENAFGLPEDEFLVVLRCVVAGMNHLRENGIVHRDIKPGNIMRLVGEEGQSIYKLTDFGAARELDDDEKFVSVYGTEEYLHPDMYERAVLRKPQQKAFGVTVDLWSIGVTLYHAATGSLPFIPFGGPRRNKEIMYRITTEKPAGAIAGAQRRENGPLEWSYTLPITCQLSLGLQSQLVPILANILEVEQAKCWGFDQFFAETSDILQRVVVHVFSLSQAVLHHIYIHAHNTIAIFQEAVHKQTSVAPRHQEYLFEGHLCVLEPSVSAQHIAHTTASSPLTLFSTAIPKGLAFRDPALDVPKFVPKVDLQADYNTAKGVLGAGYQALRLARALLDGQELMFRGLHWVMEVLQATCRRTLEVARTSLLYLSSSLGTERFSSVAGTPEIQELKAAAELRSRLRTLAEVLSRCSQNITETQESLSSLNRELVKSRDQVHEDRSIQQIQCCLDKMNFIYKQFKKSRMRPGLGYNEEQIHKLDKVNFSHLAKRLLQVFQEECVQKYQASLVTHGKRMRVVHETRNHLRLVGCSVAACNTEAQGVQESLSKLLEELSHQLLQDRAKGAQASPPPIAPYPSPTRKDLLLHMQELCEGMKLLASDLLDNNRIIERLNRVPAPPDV
In words: In-vitro IKKε kinase assay ([γ33]ATP filter-plate). The format is biochemical. The essentials: (§1)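 His-tagged IKKε and TBK1 from Sf9 cells were assayed with myelin basic protein or casein and [γ33]ATP at 2×Km ATP (32 μM for IKKε, 60 μM for TBK1). Enzyme was 0.1 or 0.015 μg/ml for IKKε and 0.1 or 0.02 μg/ml for TBK1 (normal/sensitized). Reactions ran 30-45 min, were filter-captured, scintillation-counted, and normalized to DMSO after background subtraction.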

A further experiment has as its target T2, TBK1 (Homo sapiens, UniProt Q9UHD2).
T2 construct: His-tag; made in house; host or cells: Sf9 insect cells
T2 sequence (Q9UHD2 1-729): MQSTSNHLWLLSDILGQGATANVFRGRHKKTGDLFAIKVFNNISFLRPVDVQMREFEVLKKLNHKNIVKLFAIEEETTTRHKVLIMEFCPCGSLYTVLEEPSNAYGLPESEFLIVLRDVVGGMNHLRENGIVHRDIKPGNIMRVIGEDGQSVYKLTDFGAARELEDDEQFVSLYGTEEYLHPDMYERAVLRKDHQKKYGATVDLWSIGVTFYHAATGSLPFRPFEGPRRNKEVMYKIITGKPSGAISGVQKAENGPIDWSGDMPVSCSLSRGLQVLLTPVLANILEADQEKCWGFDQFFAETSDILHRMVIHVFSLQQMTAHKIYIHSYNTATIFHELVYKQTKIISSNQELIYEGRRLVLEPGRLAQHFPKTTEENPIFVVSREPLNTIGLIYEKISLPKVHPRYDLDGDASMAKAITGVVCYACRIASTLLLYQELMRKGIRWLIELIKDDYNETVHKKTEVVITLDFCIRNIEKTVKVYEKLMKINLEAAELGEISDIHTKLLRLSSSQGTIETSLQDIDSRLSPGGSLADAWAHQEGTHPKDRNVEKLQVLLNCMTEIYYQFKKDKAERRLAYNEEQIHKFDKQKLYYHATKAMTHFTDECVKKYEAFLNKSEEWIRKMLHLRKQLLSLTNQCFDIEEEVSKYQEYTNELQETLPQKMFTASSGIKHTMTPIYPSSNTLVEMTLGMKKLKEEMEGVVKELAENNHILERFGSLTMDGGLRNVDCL
In words: In-vitro TBK1 kinase assay ([γ33]ATP filter-plate). It is filed as biochemical. The essentials: as §1

Setting [2] is: HEK293T cells in culture, Table 3, read-out: pIRF3 ELISA IC50.
[3] abbreviates: HEK293T cells, 20 hours, text bins, read-out: IC50 for inhibition of the in-situ IKKε-mediated phosphorylation of IRF3.
[4] abbreviates: text bins, read-out: IC50 for inhibition of the kinase activity of IKKε.
Setting [5] is: text bins, read-out: IC50 for inhibition of the kinase activity of TBK1.

Each structure is given as a SMILES string. Read-outs that look alike come from different tables or passages of the source.

A word on the IC50: it is the concentration needed to halve the response being measured. Consider `N#Cc1cc(-c2ccnc(Nc3cccc(CN4CCN(CCO)CC4)c3)n2)ccc1OC1CCOCC1` [compound 625, 5-{2-[(3-{[4-(2-Hydroxyethyl)piperazin-1-yl]methyl}phenyl)amino]pyrimidin-4-yl}-2-(tetrahydro-2H-pyran-4-yloxy)benzonitrile], for which the IC50 in experiment [1] (setting [2]) was 16.9 nM; in experiment [1] (setting [3]) it was less than 100 nM; at IKKε (Table 3, read-out: IKKε IC50), 2 nM; on IKKε (setting [4]) it was less than 5 nM; at TBK1 (Table 3, read-out: TBK1 IC50) it was 0.4 nM; on TBK1 (setting [5]), less than 10 nM.
As for `COc1cc(Nc2nccc(-c3ccc(OC4CCOCC4)c(C#N)c3)n2)ccc1S(=O)(=O)N(C)C1CCN(C)CC1` [Example 212], the IC50 was less than 100 nM in experiment [1] (setting [3]), less than 5 nM on IKKε (setting [4]) and less than 10 nM on TBK1 (setting [5]).
Regarding `N#Cc1cc(-c2ccnc(Nc3ccc(Cn4ccnc4)cc3)n2)ccc1OC1CCOCC1` [compound 500, 5-(2-{[4-(1H-imidazol-1-ylmethyl)phenyl]amino}pyrimidin-4-yl)-2-(tetrahydro-2H-pyran-4-yloxy)benzonitrile], the half-inhibitory concentration (IC50) was 91.8 nM in experiment [1] (setting [2]); less than 100 nM in experiment [1] (setting [3]); 2 nM on IKKε (Table 3, read-out: IKKε IC50); less than 5 nM at IKKε (setting [4]); 0.3 nM on TBK1 (Table 3, read-out: TBK1 IC50); less than 10 nM at TBK1 (setting [5]).
With `Cc1ccc(Nc2nccc(-c3ccc(OC4CCOCC4)c(C#N)c3)n2)cc1OCCN1CCN(C(C)C)CC1` [compound 597, 5-{2-[(4-Methyl-3-{2-[4-(propan-2-yl)piperazin-1-yl]ethoxy}phenyl)amino]pyrimidin-4-yl}-2-(tetrahydro-2H-pyran-4-yloxy)benzonitrile], the IC50 was 100 to 250 nM in experiment [1] (setting [3]), less than 5 nM on IKKε (setting [4]) and less than 10 nM on TBK1 (setting [5]).
Consider `CC1CC1C(=O)Nc1ccc(-c2ccnc(Nc3ccc(N4CCOCC4)cc3)n2)cc1C#N` (stereo not shown) [compound 415, N-[2-cyano-4-(2-{[4-(morpholin-4-yl)phenyl]amino}pyrimidin-4-yl)phenyl]-2-methylcyclopropane-carboxamide], for which the figures for the IC50 (in experiment [1] (setting [3]); at IKKε (setting [4]); at TBK1 (setting [5])) were less than 100 nM, less than 5 nM and less than 10 nM, respectively.
Consider `CN(C)S(=O)(=O)Cc1ccc(Nc2nccc(-c3ccc(OC4CCOCC4)c(C#N)c3)n2)cc1` [compound 401, 1-[4-({4-[3-Cyano-4-(tetrahydro-2H-pyran-4-yloxy)phenyl]pyrimidin-2-yl}amino)phenyl]-N,N-dimethylmethane-sulfonamide], for which the results for the half-maximal inhibitory concentration (IC50) (in experiment [1] (setting [3]); on IKKε (setting [4]); at TBK1 (setting [5])) were less than 100 nM, less than 5 nM and less than 10 nM, respectively.
On to `CC(C)N1CCN(CCOc2cc(Nc3nccc(-c4ccc(OC5CCOCC5)c(C#N)c4)n3)ccc2F)CC1` [compound 650, 5-{2-[(4-Fluoro-3-{2-[4-(propan-2-yl)piperazin-1-yl]ethoxy}phenyl)amino]pyrimidin-4-yl}-2-(tetrahydro-2H-pyran-4-yloxy)benzonitrile], for which the IC50 in experiment [1] (setting [3]) is less than 100 nM; on IKKε (setting [4]), less than 5 nM; on TBK1 (setting [5]), less than 10 nM.
The matching figures for `COc1cc(Nc2nccc(-c3ccc(OC4CCOCC4)c(C#N)c3)n2)ccc1CN1CC(O)C1` [compound 483, 5-[2-({4-[(3-Hydroxyazetidin-1-yl)methyl]-3-methoxyphenyl}amino)pyrimidin-4-yl]-2-(tetrahydro-2H-pyran-4-yloxy)benzonitrile]: less than 100 nM, 5 to 50 nM and less than 10 nM.
`COc1cc(Nc2nccc(-c3ccc(OC4CCOCC4)c(C#N)c3)n2)ccc1C(=O)N1CCCC1` [compound 613, 5-(2-{[3-Methoxy-4-(pyrrolidin-1-ylcarbonyl)phenyl]amino}pyrimidin-4-yl)-2-(tetrahydro-2H-pyran-4-yloxy)benzonitrile]: the IC50 is 19.9 nM in experiment [1] (setting [2]); less than 100 nM in experiment [1] (setting [3]); 0.8 nM at IKKε (Table 3, read-out: IKKε IC50); less than 5 nM at IKKε (setting [4]); 0.4 nM at TBK1 (Table 3, read-out: TBK1 IC50); less than 10 nM at TBK1 (setting [5]).
As for `N#Cc1cc(-c2ccnc(Nc3ccc(F)c(OCCN4CCNCC4)c3)n2)ccc1OC1CCOCC1` [compound 626, 5-[2-({4-Fluoro-3-[2-(piperazin-1-yl)ethoxy]phenyl}amino)pyrimidin-4-yl]-2-(tetrahydro-2H-pyran-4-yloxy)benzonitrile], the IC50 in experiment [1] (setting [3]) was less than 100 nM; on IKKε (setting [4]) it was less than 5 nM; at TBK1 (setting [5]) it was less than 10 nM.
For `CCN(CC)CCOc1ccc(Nc2nccc(-c3ccc(OC4CCOCC4)c(C#N)c3)n2)cc1OC` [compound 530], in that order: less than 100 nM, less than 5 nM and less than 10 nM.
Turning to `N#Cc1cc(-c2ccnc(Nc3ccc(N4CCOCC4)cc3)n2)ccc1NC1CCOCC1` [compound 468, 5-(2-{[4-(morpholin-4-yl)phenyl]amino}pyrimidin-4-yl)-2-(tetrahydro-2H-pyran-4-ylamino) benzonitrile], the figures for the concentration for half-maximal inhibition (IC50) (in experiment [1] (setting [3]); at IKKε (setting [4]); at TBK1 (setting [5])) were less than 100 nM, 5 to 50 nM and less than 10 nM, respectively.
As for `COCCOC1CN(C(=O)c2ccc(Nc3nccc(-c4ccc(OC5CCOCC5)c(C#N)c4)n3)cc2OC)C1` [compound 632, 5-{2-[(3-Methoxy-4-{[3-(2-methoxyethoxy)azetidin-1-yl]carbonyl}phenyl)amino]pyrimidin-4-yl}-2-(tetrahydro-2H-pyran-4-yloxy)benzonitrile], the IC50 is 22.8 nM in experiment [1] (setting [2]); less than 100 nM in experiment [1] (setting [3]); 0.5 nM at IKKε (Table 3, read-out: IKKε IC50); less than 5 nM on IKKε (setting [4]); 0.4 nM at TBK1 (Table 3, read-out: TBK1 IC50); less than 10 nM on TBK1 (setting [5]).
For `CN(C)Cc1cccc(Nc2nccc(-c3ccc(O[C@@H]4CCN(C(=O)CO)C4)c(C#N)c3)n2)c1` [compound 642, 5-[2-({3-[(Dimethylamino)methyl]phenyl}amino)pyrimidin-4-yl]-2-{[(3R)-1-(hydroxyacetyl)pyrrolidin-3-yl]oxy}benzonitrile], the half-inhibitory concentration (IC50) in experiment [1] (setting [3]) is less than 100 nM; at IKKε (setting [4]), less than 5 nM.
`N#Cc1cc(-c2ccnc(Nc3ccc(S(N)(=O)=O)cc3)n2)ccc1OC1CCOCC1` [compound 564, 4-({4-[3-Cyano-4-(tetrahydro-2H-pyran-4-yloxy)phenyl]pyrimidin-2-yl}amino) benzenesulfonamide]: the IC50 is 100 to 250 nM in experiment [1] (setting [3]) and less than 5 nM on IKKε (setting [4]).
